In US20200224136A1, “INTESTINE-CHIP: DIFFERENTIAL GENE EXPRESSION MODEL” (priority 2019, published 2020):

Tests used:
[1] = tested on: Mixed primary cultures (Colon); settings: 10 mM, 2-4 hours; Active GLP-1 ELISA-kit (Millipore); cited from earlier work
[2] = tested on: Mixed primary cultures (upper half of SI); settings: 10 mM, 2-4 hours; Active GLP-1 ELISA-kit (Millipore); cited from earlier work
[3] = tested on: Endoscopic duodenal biopsies; settings: 300 mM, Intraduodenal Glucose Infusion, 30 min; GLP-1 (Active) ELISA Kit (Millipore); cited from earlier work
[4] = tested on: Small Intestinal Organoids; settings: 30 uM DCA, 2 hours; GLP-1 (Active) assay; cited from earlier work
Ileum-Chip [5] = test: TNF-α induced inflammation in Ileum-Chip: chemokine release (ELISA) and I-CAM1/MadCAM1 expression; type: cell-based, human; parameters: Apical CXCL11 (1-TAC) / Apical CCL20 (MIP-3 alpha) / Basal CCL25 (TECK) / Basal CXCL8 (IL-8) / Basal CXCLIO (IP-10) / Basal CXCL11 (1-TAC) / Basal CCL20 (MIP-3 alpha) / Apical CCL25 (TECK) / Apical CXCL8 (IL-8) / Apical CXCLIO (IP-10): unit not given here
Description: (§1) TNFα induces increased membrane expression of I-CAM1 and MadCAM1 in intestinal microvascula endothelium.
(§2) Identification of MadCAM1 and characterization of microvascular response to inflammation in Ileum-Chip. Inflammation-Induced Expression of I-CAM1 and MadCAM1 in Ileum-Chip. Read-outs: mRNA expression of vascular adhesion molecules (I-CAM1, MadCAM1); Immunofluorescent detection of I-CAM1 and MadCAM1; Epithelial and vascular release of inflammatory chemokines using ELISA (Meso Scale Discovery). FIG. 13. FIG. 14.
Summary of Evaluation of Microvascular Function in Ileum-Chip.

[6] = tested on: intestinal microvascular endothelium; test: TNF-α stimulation of microvasculature alone: chemokine release; type: cell-based, human; parameters: unit not given here; settings: TNF-α 100 U/ml, n = 1, 4 chips/condition
Description: as §2

Ileum-Chip [7] = test: Intestinal barrier function of Ileum-Chip under TNF-α; type: cell-based, human; settings: vascular exposure, 100 U/ml (~2 ng/ml)
Description: As one example, to evaluate the integrity of the intestinal barrier 3 kDa Cascade Blue dextran (Sigma, D7132) was added to the epithelial compartment of the Duodenum-Chip at 0.1 mg/ml on the day of connecting a microfluidic device to flow, e.g., see exemplary timelines. Effluents of the endothelial compartment were sampled 3 hours after the addition of a dye, up to 24 hours, up to 48 hours, up to 72 hours, or at 48 hour intervals until the end of the assay, in order to determine the concentration of dye that has diffused through the membrane.
The apparent paracellular permeability (Papp) was calculated based on a standard curve and using the following formula: […]
as §1

GLUTag Cells = settings: 250 uM, 36 minutes; Active GLP-1 (ver. 2) Assay Kit (Mesoscale Discovery); cited from earlier work
[8] = TNF-α 100 U/ml, n = 1, 4 chips/condition

OC[C@H]1OC(O)[C@H](O)[C@@H](O)[C@@H]1O (stereo partly shown) [Glucose]
GLP-1 Concentration (fold increase), Colon [1]: 10-fold increase | GLP-1 Concentration (fold increase), SI [2]: (Colon), 2-fold | GLP-1 Concentration (fold increase) [3]: 3-fold increase

C[C@H](CCC(=O)O)[C@H]1CC[C@H]2[C@@H]3CC[C@@H]4C[C@H](O)CC[C@]4(C)[C@H]3C[C@H](O)[C@]12C [DCA]
GLP-1 Concentration (fold increase) [4]: 2.5-fold increase

TNF-α
membrane expression of I-CAM1 and MadCAM1 in intestinal microvascular endothelium (Ileum-Chip [5]; 100 U/ml): increased | Apical CCL20 (MIP-3 alpha) (Ileum-Chip [5]; [8]): 170.92 ± 36.8 | Apical CCL25 (TECK) (Ileum-Chip [5]; [8]): 17.11 ± 9.2 | Apical CXCL8 (IL-8) (Ileum-Chip [5]; [8]): 16.30 ± 5.9 | Apical CXCL11 (1-TAC) (Ileum-Chip [5]; [8]): 302.01 ± 111.8 | Apical CXCLIO (IP-10) (Ileum-Chip [5]; [8]): 6.34 ± 2.3 | Basal CCL20 (MIP-3 alpha) (Ileum-Chip [5]; [8]): 93.93 ± 18.3 | Basal CCL25 (TECK) (Ileum-Chip [5]; [8]): 117.91 ± 16.1 | Basal CXCL8 (IL-8) (Ileum-Chip [5]; [8]): 1868.99 ± 198.7 | Basal CXCL11 (1-TAC) (Ileum-Chip [5]; [8]): 26.00 ± 9.1 | Basal CXCLIO (IP-10) (Ileum-Chip [5]; [8]): 502.04 ± 287.1 | Apical CCL20 (MIP-3 alpha) [6]: 0.74 ±0.9 | Apical CXCL8 (IL-8) [6]: 105.5 ± 74.2 | Apical CXCL11 (1-TAC) [6]: 0.53 ± 1.0 | Apical CXCLIO (IP-10) [6]: 0.19 ± 0.1 | Basal CCL20 (MIP-3 alpha) [6]: 3.51 ± 2.8 | Basal CXCL8 (IL-8) [6]: 1835.44 ± 282.8 | Basal CXCL11 (1-TAC) [6]: 1.74 ± 1.4 | Basal CXCLIO (IP-10) [6]: 35.22 ± 20.1 | effect on intestinal barrier function (Ileum-Chip [7]): does not affect

CCCCCCCC/C=C\CCCCCCCC(=O)O [Oleic Acid]
GLP-1 Concentration (fold increase) (GLUTag Cells): 4-fold increase
